We go through 16 compounds from ChEMBL document CHEMBL4004847, “New tacrine-derived AChE/BuChE inhibitors: Synthesis and biological evaluation of 5-amino-2-phenyl-4H-pyrano[2,3-b]quinoline-3-carboxylates” (Eur J Med Chem, 2017).

≈ marks a conversion by molar mass, not a printed value. Calls of active or inactive are those of the source. The rule behind the calls is not given here.

In test [1] the target is T1, Acetylcholinesterase (Electrophorus electricus, UniProt O42275).
Description: Inhibition of electric eel AChE using acetylthiocholine iodide as substrate preincubated for 5 mins followed by substrate addition measured for 1 min by Ellman's method
For a further test, the target named is Cholinesterase (Homo sapiens, UniProt P06276).
Chain of Cholinesterase (P06276 whole entry): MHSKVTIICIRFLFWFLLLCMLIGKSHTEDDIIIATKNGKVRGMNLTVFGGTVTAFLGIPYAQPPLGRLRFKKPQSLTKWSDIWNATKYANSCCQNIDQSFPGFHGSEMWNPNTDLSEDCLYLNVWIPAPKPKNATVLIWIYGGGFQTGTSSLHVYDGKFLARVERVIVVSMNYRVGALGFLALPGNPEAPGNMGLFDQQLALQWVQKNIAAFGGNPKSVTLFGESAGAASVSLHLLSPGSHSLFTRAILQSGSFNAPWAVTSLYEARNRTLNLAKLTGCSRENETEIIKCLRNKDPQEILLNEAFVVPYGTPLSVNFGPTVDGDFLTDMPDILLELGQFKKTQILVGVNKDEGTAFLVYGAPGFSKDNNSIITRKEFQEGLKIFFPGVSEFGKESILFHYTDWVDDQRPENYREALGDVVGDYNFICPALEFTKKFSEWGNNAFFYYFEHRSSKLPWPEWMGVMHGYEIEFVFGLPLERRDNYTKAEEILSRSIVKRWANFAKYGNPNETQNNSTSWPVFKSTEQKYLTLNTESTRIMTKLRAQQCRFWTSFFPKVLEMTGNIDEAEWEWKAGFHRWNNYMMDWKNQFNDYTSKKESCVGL
For test [2], the target named is T1, Acetylcholinesterase. In words: Mixed-type inhibition of electric eel AChE preincubated for 5 mins followed by varying levels acetylthiocholine iodide substrate addition by Lineweaver-Burk plot analysis.
Test [3] relates to PC-12. In words: Neuroprotective activity against H2O2-induced cell death in rat PC12 cells assessed as increase in cell viability at 100 uM preincubated for 3 hrs followed by H2O2 addition measured after 24 hrs by MTT assay. It is filed as functional, cell-based. On the technique in general: Formazan colour is commonly taken as a measure of viable cells.
A further test deals with HepG2. In words: cells. Conditions: Homo sapiens, HepG2, 24 h.
Test [4] has as its system PC-12. In words: Neuroprotective activity against H2O2-induced cell death in rat PC12 cells assessed as increase in cell viability at 10 uM preincubated for 3 hrs followed by H2O2 addition measured after 24 hrs by MTT assay. It is filed as functional, cell-based.

T1 sequence (O42275 whole entry): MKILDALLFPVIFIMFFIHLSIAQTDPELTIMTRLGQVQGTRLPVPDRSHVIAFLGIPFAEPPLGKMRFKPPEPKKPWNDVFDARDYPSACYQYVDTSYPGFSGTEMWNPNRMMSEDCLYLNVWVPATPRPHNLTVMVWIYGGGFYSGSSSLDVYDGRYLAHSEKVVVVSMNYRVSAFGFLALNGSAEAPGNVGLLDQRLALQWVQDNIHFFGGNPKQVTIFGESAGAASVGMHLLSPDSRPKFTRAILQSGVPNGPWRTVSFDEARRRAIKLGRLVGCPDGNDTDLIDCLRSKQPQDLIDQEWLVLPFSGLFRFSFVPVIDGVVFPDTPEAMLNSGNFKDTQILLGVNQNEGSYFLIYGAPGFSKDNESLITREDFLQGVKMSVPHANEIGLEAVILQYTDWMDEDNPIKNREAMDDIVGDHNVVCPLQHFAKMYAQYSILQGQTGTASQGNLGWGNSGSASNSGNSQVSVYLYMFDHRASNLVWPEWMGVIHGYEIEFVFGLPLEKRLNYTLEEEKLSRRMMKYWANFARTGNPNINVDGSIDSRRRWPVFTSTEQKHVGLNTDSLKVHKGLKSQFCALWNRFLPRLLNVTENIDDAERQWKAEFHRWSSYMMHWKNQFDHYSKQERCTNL
Description for HepG2: Cytotoxicity against human HepG2 cells assessed as reduction in cell viability after 24 hrs by MTT assay

As usually defined, the IC50 is the concentration at which inhibition is half-maximal. The low end stands for inhibition by little substance, the high end for a need for much substance. Turning to `CCOC(=O)C1=C(c2ccccc2)Oc2nc3c(c(N)c2C1c1ccc(C)cc1)CCCC3` (stereo not drawn), the figures for the IC50 against Acetylcholinesterase [1] and on Cholinesterase were 4.16 µM and 54.1 µM, respectively.
As usually defined, the Ki is the dissociation constant of the complex between target and ligand, obtained from inhibition or displacement. Read a low Ki as a stronger hold on the target. In turn, `CCOC(=O)C1=C(c2ccccc2)Oc2nc3c(c(N)c2C1c1cccc(Br)c1)CCCC3` (stereo not drawn) gave a Ki on Acetylcholinesterase [2] of 0.0485 µM. In addition, the result in the test with PC-12 [3] was Active. The results for the IC50 in the test with HepG2, against Acetylcholinesterase [1] and against Cholinesterase were 72.8 µg/mL (≈ 144 µM), 0.069 µM and 1.35 µM, respectively.
Regarding `CCOC(=O)C1=C(c2ccccc2)Oc2nc3c(c(N)c2C1c1ccc(Cl)cc1)CCCC3` (stereo not drawn), the IC50 was found to be 1.1 µM at Acetylcholinesterase [1] and 17.6 µM at Cholinesterase.
On the same counts, the results for `CCOC(=O)C1=C(c2ccccc2)Oc2nc3c(c(N)c2C1c1cccc(OC)c1)CCCC3` (stereo not drawn) are 0.51 µM and 7.14 µM.
For `CCOC(=O)C1=C(c2ccccc2)Oc2nc3c(c(N)c2C1c1ccc(Cl)cc1Cl)CCCC3` (stereo not drawn), in that order: 1.62 µM and 22.7 µM.
Turning to `CCOC(=O)C1=C(c2ccccc2)Oc2nc3c(c(N)c2C1c1ccc(F)cc1)CCCC3` (stereo not drawn), the IC50 was 0.404 µM on Acetylcholinesterase [1] and 6.1 µM on Cholinesterase.
Regarding `CCOC(=O)C1=C(c2ccccc2)Oc2nc3c(c(N)c2C1c1cccc(F)c1)CCCC3` (stereo not drawn), the IC50 worked out at 0.778 µM against Acetylcholinesterase [1] and 11.7 µM against Cholinesterase.
In the case of `CCOC(=O)C1=C(c2ccccc2)Oc2nc3c(c(N)c2C1c1ccccc1Cl)CCCC3` (stereo not drawn), the outcome with PC-12 [4] and in the test on PC-12 [3] was Active. For the same compound, the IC50 in the test on HepG2 is above 100 µg/mL; against Acetylcholinesterase [1] it was 0.153 µM; against Cholinesterase, 2.14 µM.
For the compound `CCOC(=O)C1=C(c2ccccc2)Oc2nc3c(c(N)c2C1c1ccccc1Br)CCCC3` (stereo not drawn), in the test with PC-12 [3], the result was Active. The IC50 in the test on HepG2 was above 100 µg/mL; at Acetylcholinesterase [1], 0.118 µM; at Cholinesterase it was 2.76 µM.
For `CCOC(=O)C1=C(c2ccccc2)Oc2nc3c(c(N)c2C1c1ccc([N+](=O)[O-])cc1)CCCC3` (stereo not drawn), the IC50 was 0.583 µM against Acetylcholinesterase [1] and 9.91 µM at Cholinesterase.
As to `CCOC(=O)C1=C(c2ccccc2)Oc2nc3c(c(N)c2C1c1ccc(OC)cc1)CCCC3` (stereo not drawn), the IC50 turned out to be 0.48 µM against Acetylcholinesterase [1] and 5.76 µM at Cholinesterase.
Turning to `CCOC(=O)C1=C(c2ccccc2)Oc2nc3c(c(N)c2C1c1ccccc1)CCCC3` (stereo not drawn), the figures for the IC50 at Acetylcholinesterase [1] and against Cholinesterase were 0.423 µM and 5.49 µM, respectively.
Take `CCOC(=O)C1=C(c2ccccc2)Oc2nc3c(c(N)c2C1c1ccc(Br)cc1)CCCC3` (stereo not drawn): the half-maximal inhibitory concentration (IC50) against Acetylcholinesterase [1] worked out at 6.22 µM; against Cholinesterase, 74.2 µM.
As for `CCOC(=O)C1=C(c2ccccc2)Oc2nc3c(c(N)c2C1c1cccc(Cl)c1)CCCC3` (stereo not drawn), the result in the test on PC-12 [3] was Active. For the same compound, the figures for the IC50 in the test on HepG2, at Acetylcholinesterase [1] and at Cholinesterase were 50.4 µg/mL (≈ 109 µM), 0.228 µM and 3.1 µM, respectively.
Take `CCOC(=O)C1=C(c2ccccc2)Oc2nc3c(c(N)c2C1c1ccccc1F)CCCC3` (stereo not drawn): the IC50 at Acetylcholinesterase [1] came out at 0.37 µM; against Cholinesterase, 3.63 µM.
For `CCOC(=O)C1=C(c2ccccc2)Oc2nc3c(c(N)c2C1c1cccc([N+](=O)[O-])c1)CCCC3` (stereo not drawn), the IC50 is above 100 µg/mL with HepG2, 2.73 µM on Acetylcholinesterase [1] and 40.9 µM on Cholinesterase.
